# Data taken from ChEMBL document CHEMBL5625183, “Discovery of a novel dual-target inhibitor of CDK12 and PARP1 that induces synthetic lethality for treatment of triple-negative breast cancer” (Eur J Med Chem, 2023).
# Activity calls are given as the source filed them. The calls are words filed in the database; no cut-off is given here.
# How the values were obtained:
# [1] = Apparent volume of distribution in Sprague-Dawley rat at 1 mg/kg, iv measured upto 24 hrs by LC-MS/MS analysis; format: ADME, organism-based; details: in vivo, read-out: Vz
# MDA-MB-231 [2] = assay: Antitumor activity against human MDA-MB-231 cells xenografted in ip dosed BALB/c mouse assessed as downregulation of MMP-2 level administered once daily for 16 days; format: functional, organism-based; details: dose 20-80 mg/kg, time 16.0 day
# Mus musculus [3] = assay: In-vivo inhibition of CDK12-PARP1 in BALB/c mouse assessed as downregulation of CTD at Ser2 residue expression in tumor at 20 to 80 mg/kg, ip administered once daily for 16 days by Western blot analysis; format: functional, organism-based; details: dose 20-80 mg/kg, time 16.0 day
# [4] = Clearance in Sprague-Dawley rat at 1 mg/kg, iv measured upto 24 hrs by LC-MS/MS analysis; format: ADME, organism-based; details: in vivo
# MDA-MB-436 [5] = assay: Antiproliferative activity against human MDA-MB-436 cells assessed as inhibition of cell growth incubated for 24 hrs by MTT assay; format: functional, cell-based; details: Homo sapiens, MDA-MB-436, 24 h
# Mus musculus [6] = assay: In-vivo inhibition of CDK12-PARP1 in BALB/c mouse assessed as downregulation of PAR expression in tumor at 20 to 80 mg/kg, ip administered once daily for 16 days by Western blot analysis; format: functional, organism-based; details: dose 20-80 mg/kg, time 16.0 day
# [7] = biological target: Dual specificity protein kinase CLK1 (Homo sapiens) (UniProt P49759); assay: Inhibition of CLK1 (unknown origin) at 1 uM relative to control
# Chain of Dual specificity protein kinase CLK1 (Homo sapiens) (P49759 whole entry, looked up): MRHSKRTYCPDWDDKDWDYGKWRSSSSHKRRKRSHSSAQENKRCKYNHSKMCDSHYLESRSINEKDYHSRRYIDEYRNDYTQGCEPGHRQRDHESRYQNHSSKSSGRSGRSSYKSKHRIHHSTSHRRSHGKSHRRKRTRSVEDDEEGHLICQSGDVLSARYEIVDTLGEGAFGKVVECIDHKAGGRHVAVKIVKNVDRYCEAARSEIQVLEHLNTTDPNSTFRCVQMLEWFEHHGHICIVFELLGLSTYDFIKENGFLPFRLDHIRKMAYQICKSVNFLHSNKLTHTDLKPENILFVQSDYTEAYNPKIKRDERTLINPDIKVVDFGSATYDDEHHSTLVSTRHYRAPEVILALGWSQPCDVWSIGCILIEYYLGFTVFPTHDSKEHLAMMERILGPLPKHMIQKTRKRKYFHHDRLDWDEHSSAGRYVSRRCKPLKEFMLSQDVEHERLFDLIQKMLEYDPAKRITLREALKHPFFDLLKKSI
# [8] = biological target: T1, Cyclin-dependent kinase 12 (Homo sapiens, UniProt Q9NYV4); assay: Binding affinity to CDK12 in human MDA-MB-231 cells assessed as increase in protein thermal stabilization at 10 uM incubated for 6 hrs by CETSA based Western blot analysis; format: cell-based
# Target sequence in this assay (Q9NYV4 whole entry, looked up): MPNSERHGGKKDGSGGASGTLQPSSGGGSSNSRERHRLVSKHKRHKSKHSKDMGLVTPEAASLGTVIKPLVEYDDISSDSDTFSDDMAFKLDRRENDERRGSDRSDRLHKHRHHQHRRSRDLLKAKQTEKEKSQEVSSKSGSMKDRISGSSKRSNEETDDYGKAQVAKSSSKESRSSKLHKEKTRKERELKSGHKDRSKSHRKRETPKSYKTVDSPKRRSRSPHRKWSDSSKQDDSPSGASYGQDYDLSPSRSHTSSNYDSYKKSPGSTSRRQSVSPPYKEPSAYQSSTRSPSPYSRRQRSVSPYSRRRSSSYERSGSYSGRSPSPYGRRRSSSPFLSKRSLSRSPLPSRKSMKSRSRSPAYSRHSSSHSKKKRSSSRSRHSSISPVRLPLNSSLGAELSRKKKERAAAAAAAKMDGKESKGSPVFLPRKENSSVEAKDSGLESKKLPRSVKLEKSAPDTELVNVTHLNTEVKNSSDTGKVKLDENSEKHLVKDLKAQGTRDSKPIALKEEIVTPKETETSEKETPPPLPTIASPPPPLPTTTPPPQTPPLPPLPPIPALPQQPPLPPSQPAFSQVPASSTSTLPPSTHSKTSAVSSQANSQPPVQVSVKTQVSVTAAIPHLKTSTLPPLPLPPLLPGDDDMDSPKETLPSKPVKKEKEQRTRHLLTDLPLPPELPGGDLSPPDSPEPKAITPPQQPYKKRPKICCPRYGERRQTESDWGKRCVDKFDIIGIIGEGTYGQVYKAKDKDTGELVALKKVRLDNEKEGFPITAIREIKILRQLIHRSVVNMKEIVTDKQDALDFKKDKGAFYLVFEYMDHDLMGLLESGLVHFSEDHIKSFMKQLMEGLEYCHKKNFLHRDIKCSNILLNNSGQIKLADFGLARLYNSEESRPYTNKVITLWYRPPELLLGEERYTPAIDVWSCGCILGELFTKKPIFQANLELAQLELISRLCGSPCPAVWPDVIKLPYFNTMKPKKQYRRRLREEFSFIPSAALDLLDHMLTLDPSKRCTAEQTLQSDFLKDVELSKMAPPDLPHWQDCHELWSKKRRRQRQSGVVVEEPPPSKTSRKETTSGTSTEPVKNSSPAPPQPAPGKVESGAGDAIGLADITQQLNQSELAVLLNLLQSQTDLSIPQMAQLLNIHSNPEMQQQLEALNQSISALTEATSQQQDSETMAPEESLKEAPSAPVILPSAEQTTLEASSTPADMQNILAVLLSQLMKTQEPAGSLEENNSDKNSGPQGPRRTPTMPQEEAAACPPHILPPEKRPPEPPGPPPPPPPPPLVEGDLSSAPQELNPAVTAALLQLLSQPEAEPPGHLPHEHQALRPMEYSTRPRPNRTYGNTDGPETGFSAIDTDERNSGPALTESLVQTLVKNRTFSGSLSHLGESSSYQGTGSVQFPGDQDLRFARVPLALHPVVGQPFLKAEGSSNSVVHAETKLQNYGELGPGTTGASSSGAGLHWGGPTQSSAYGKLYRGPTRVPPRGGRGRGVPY
# [9] = biological target: Poly [ADP-ribose] polymerase 1 (Homo sapiens, UniProt P09874); assay: Binding affinity to PARP1 in human MDA-MB-436 cells assessed as increase in protein thermal stabilization at 10 uM incubated for 6 hrs by CETSA based Western blot analysis; format: cell-based
# Chain of Poly [ADP-ribose] polymerase 1 (P09874 whole entry): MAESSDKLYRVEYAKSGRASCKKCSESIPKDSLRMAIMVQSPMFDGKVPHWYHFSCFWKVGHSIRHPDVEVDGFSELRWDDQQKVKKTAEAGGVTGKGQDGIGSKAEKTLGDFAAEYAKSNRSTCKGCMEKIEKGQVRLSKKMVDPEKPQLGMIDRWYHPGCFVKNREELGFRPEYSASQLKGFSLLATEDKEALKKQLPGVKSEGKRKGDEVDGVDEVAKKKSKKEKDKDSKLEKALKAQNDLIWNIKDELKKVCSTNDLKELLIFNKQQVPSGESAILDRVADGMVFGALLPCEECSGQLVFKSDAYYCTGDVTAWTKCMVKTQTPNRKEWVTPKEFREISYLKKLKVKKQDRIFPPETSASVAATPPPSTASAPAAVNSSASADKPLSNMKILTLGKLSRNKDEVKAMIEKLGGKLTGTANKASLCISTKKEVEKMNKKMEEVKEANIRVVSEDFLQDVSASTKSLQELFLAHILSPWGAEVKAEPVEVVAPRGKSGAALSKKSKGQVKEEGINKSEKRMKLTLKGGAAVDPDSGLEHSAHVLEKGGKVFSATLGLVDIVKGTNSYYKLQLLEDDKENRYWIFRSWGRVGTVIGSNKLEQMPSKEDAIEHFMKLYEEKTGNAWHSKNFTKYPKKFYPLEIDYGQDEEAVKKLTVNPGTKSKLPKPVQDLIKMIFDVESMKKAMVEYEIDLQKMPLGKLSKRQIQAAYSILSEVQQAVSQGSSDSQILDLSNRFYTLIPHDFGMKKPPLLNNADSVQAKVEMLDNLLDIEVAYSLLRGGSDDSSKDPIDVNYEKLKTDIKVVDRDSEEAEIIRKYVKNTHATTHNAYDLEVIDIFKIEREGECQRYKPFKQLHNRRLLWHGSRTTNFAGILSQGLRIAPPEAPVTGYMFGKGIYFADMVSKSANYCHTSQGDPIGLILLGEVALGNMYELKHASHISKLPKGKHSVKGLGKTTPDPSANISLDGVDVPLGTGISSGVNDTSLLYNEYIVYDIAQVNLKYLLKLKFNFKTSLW
# [10] = Toxicity in BALB/c mouse xenografted with human MDA-MB-231 cells assessed as morphological changes in spleen at 20 to 80 mg/kg, ip administered once daily for 16 days by H and E staining based analysis; format: organism-based; details: in vivo, 384 h, dose 20-80 mg/kg, time 16 day
# [11] = biological target: T1, Cyclin-dependent kinase 12; assay: Inhibition of CDK12 in human MDA-MB-231 cells assessed as effect on Pol II CTD at ser5 residue phosphorylation incubated for 24 hrs; format: cell-based; details: dose 5-20 µM
# Target sequence in this assay (Q9NYV4 whole entry, looked up): as the sequence (Q9NYV4 whole entry, looked up) above
# [12] = biological target: T2, Cyclin-dependent kinase 5 (Homo sapiens, UniProt Q00535); assay: Inhibition of CDK5 (unknown origin) at 1 uM relative to control
# MDA-MB-468 [13] = assay: Induction of apoptosis in human MDA-MB-468 cells assessed as increase in […] at 10 uM incubated for 24 hrs by Annexin V/PI staining based flow cytometry analysis; format: functional, cell-based
# [14] = biological target: T1, Cyclin-dependent kinase 12; assay: Inhibition of CDK12 in human MDA-MB-231 cells assessed as effect on Pol II CTD at ser7 residue phosphorylation incubated for 24 hrs; format: cell-based; details: dose 5-20 µM
# Target sequence in this assay (Q9NYV4 whole entry, looked up): as above
# MDA-MB-231 [15] = assay: Downregulation of Pol II CTD at ser2 residue expression in human MDA-MB-231 cells incubated for 24 hrs; format: functional, cell-based; details: dose 5-20 µM
# MDA-MB-468 [16] = assay: Induction of apoptosis in human MDA-MB-468 cells assessed as downregulation of Bcl-2 expression incubated for 24 hrs; format: functional, cell-based; details: dose 5-20 µM
# [17] = Tmax in Sprague-Dawley rat at 1 mg/kg, iv measured upto 24 hrs by LC-MS/MS analysis; format: ADME, organism-based; details: in vivo
# [18] = Metabolic stability in BALB/c mouse liver microsome assessed as intrinsic clearance in presence of NADPH incubated upto 60 mins by LC-MS/MS analysis; format: ADME; details: liver microsomes, read-out: CLH
# [19] = AUC (0 to infinity) in Sprague-Dawley rat at 1 mg/kg, iv measured upto 24 hrs by LC-MS/MS analysis; format: ADME, organism-based; details: in vivo
# [20] = biological target: T3, Cyclin-dependent kinase 1 (Homo sapiens, UniProt P06493); assay: Inhibition of CDK1 (unknown origin) at 1 uM relative to control
# [21] = biological target: T1, Cyclin-dependent kinase 12; assay: Inhibition of CDK12 (unknown origin) in presence of ATP by kinase-glo plus luminescent assay
# Target sequence in this assay (Q9NYV4 whole entry): as the sequence (Q9NYV4 whole entry, looked up) above
# Mus musculus [22] = assay: In-vivo induction of DNA damage in ip dosed BALB/c mouse assessed as downregulation of RAD51 level in tumor administered once daily for 16 days by Western blot analysis; format: functional, organism-based; details: dose 20-80 mg/kg, time 16.0 day
# [23] = biological target: T1, Cyclin-dependent kinase 12; assay: Inhibition of CDK12 in human MDA-MB-436 cells assessed as effect on Pol II CTD at ser7 residue phosphorylation incubated for 24 hrs; format: cell-based; details: dose 5-20 µM
# Target sequence in this assay (Q9NYV4 whole entry, looked up): as above
# MDA-MB-231 [24] = assay: Induction of cell cycle arrest in human MDA-MB-231 cells assessed as accumulation of cells at G2 phase at 10 uM measured after 24 hrs by PI staining based cytometry analysis (reference value: 8.44 %); format: functional
# [25] = AUC (0 to infinity) in Sprague-Dawley rat at 10 mg/kg, po measured upto 24 hrs by LC-MS/MS analysis; format: ADME, organism-based; details: in vivo
# [26] = MRT (0 to infinity) in Sprague-Dawley rat at 10 mg/kg, po measured upto 24 hrs by LC-MS/MS analysis; format: ADME, organism-based; details: in vivo
# MDA-MB-468 [27] = assay: Induction of apoptosis in human MDA-MB-468 cells incubated for 24 hrs by Annexin V/PI staining based flow cytometry analysis; format: functional, cell-based; details: dose 5-20 µM
# MDA-MB-231 [28] = assay: Induction of cell cycle arrest in human MDA-MB-231 cells assessed as accumulation of cells at G2 phase at 5 uM measured after 24 hrs by PI staining based cytometry analysis (reference value: 8.44 %); format: functional
# [29] = biological target: T3, Cyclin-dependent kinase 1; assay: Inhibition of CDK1 (unknown origin)
# [30] = biological target: Transcription initiation factor TFIID subunit 1-like (Homo sapiens) (UniProt Q8IZX4); assay: Inhibition of TAF1L (unknown origin) at 1 uM relative to control
# Chain of Transcription initiation factor TFIID subunit 1-like (Homo sapiens) (Q8IZX4 whole entry): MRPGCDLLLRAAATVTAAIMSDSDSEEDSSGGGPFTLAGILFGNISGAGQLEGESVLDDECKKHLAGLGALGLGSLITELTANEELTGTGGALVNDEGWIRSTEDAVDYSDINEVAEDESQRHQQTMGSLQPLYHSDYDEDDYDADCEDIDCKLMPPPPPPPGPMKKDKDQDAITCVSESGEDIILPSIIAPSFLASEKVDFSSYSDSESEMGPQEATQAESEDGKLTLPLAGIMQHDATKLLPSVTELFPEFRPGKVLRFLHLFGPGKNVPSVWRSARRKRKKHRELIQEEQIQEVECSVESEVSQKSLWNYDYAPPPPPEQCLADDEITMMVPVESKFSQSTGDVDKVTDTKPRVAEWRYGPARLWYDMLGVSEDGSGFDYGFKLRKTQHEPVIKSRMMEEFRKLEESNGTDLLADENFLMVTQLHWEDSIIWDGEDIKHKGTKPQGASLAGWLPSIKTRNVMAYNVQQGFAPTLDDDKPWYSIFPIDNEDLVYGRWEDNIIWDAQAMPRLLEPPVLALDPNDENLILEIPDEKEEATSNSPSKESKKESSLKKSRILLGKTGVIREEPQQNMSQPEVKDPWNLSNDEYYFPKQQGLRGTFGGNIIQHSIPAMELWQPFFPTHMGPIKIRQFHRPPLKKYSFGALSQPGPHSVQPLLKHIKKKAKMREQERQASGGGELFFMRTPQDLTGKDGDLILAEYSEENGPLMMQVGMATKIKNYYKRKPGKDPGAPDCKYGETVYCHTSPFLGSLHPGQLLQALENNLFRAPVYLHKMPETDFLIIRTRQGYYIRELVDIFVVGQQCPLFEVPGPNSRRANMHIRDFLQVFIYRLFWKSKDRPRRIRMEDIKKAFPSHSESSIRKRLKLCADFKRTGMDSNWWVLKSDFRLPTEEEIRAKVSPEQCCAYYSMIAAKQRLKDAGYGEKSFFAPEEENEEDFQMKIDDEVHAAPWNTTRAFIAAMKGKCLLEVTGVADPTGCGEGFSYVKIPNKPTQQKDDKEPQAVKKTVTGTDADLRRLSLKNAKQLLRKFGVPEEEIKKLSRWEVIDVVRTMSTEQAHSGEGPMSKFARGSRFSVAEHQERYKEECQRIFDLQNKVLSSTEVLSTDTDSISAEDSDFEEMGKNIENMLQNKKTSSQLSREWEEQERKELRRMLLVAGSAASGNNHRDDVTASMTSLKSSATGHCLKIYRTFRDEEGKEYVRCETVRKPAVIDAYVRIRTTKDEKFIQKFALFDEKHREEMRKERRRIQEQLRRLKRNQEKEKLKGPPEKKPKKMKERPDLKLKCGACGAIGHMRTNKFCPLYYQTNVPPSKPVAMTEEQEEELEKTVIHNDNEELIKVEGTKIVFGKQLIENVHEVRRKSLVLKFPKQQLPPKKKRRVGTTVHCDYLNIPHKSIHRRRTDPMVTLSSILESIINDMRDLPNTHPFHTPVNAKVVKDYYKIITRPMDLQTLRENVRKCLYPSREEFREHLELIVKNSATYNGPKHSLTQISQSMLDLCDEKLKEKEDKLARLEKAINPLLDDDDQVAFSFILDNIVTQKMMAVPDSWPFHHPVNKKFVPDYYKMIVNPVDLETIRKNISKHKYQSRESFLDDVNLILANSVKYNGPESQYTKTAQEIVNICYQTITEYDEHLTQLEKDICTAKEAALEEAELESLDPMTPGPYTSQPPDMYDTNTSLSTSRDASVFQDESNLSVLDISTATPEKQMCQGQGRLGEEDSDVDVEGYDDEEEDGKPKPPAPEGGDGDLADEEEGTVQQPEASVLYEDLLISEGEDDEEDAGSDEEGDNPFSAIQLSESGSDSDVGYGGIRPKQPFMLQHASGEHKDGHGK
# [31] = Metabolic stability in human liver microsome assessed as half life in presence of NADPH incubated upto 60 mins by LC-MS/MS analysis; format: ADME; details: liver microsomes
# MDA-MB-231 [32] = assay: Induction of apoptosis in human MDA-MB-231 cells incubated for 24 hrs by Annexin V/PI staining based flow cytometry analysis; format: functional, cell-based; details: dose 5-20 µM
# MDA-MB-468 [33] = assay: […] DNA repair in human MDA-MB-468 cells assessed as decrease in RAD51 level at 10 uM incubated for 24 hrs by confocal laser scanning microscopic analysis; format: functional, cell-based
# [34] = biological target: T2, Cyclin-dependent kinase 5; assay: Inhibition of CDK5 (unknown origin)
# MDA-MB-436 [35] = assay: Induction of cell cycle arrest in human MDA-MB-436 cells assessed as accumulation of cells at G2 phase at 10 uM measured after 24 hrs by PI staining based cytometry analysis (reference value: 2.54%); format: functional
# MDA-MB-231 [36] = assay: […] DNA repair in human MDA-MB-231 cells assessed as decrease in RAD51 level at 10 uM incubated for 24 hrs by confocal laser scanning microscopic analysis; format: functional, cell-based
# MDA-MB-231 [37] = assay: Antitumor activity against human MDA-MB-231 cells xenografted in BALB/c mouse assessed as reduction in Ki67 expression at 20 to 80 mg/kg, ip administered once daily for 16 days by meyers hematoxylin staining based IHC analysis; format: functional, organism-based; details: dose 20-80 mg/kg, time 16.0 day
smiles,measurement,setting,value
NC(=O)c1cccc2[nH]c(NC(=O)c3cccc(C(=O)N4CCC(Nc5ncc(I)cn5)CC4)c3)nc12,Vd,[1],3.22 L/kg
same,Activity,MDA-MB-231 [2],Active
same,inhibition,Mus musculus [3],Active
same,clearance,[4],12.5 mL/min/kg
same,IC50,MDA-MB-436 [5],9000 nM
same,inhibition,Mus musculus [6],Active
same,inhibition,[7],> 60%
same,Activity,[8],Active
same,Activity,[9],Active
same,Activity,[10],Non-Toxic
same,inhibition,[11],Dose-Dependent Effect
same,inhibition,[12],> 60%
same,Activity,MDA-MB-468 [13],Active
same,inhibition,[14],Dose-Dependent Effect
same,Activity,MDA-MB-231 [15],Dose-Dependent Effect
same,Activity,MDA-MB-468 [16],Dose-Dependent Effect
same,Tmax,[17],4.8 min
same,CLint scaled,[18],48.5 mL/min/kg
same,AUC(0-inf),[19],1340 ng·h/mL
same,inhibition,[20],> 60%
same,IC50,[21],285 nM
same,Activity,Mus musculus [22],Dose-Dependent Effect
same,inhibition,[23],Dose-Dependent Effect
same,Activity,MDA-MB-231 [24],20.35%
same,AUC(0-inf),[25],71.2 ng·h/mL
same,MRT inf,[26],4.76 h
same,Activity,MDA-MB-468 [27],Dose-Dependent Effect
same,Activity,MDA-MB-231 [28],16.84%
same,IC50,[29],517 nM
same,inhibition,[30],> 60%
same,half-life,[31],3.51 h
same,Activity,MDA-MB-231 [32],Dose-Dependent Effect
same,Activity,MDA-MB-468 [33],Active
same,IC50,[34],747 nM
same,Activity,MDA-MB-436 [35],7.35%
same,Activity,MDA-MB-231 [36],Active
same,Activity,MDA-MB-231 [37],Active
